# Assay results from ChEMBL document CHEMBL1133187, “Novel antiarthritic agents with 1,2-isothiazolidine-1,1-dioxide (gamma-sultam) skeleton: cytokine suppressive dual inhibitors of cyclooxygenase-2 and 5-lipoxygenase” (J Med Chem, 2000).
# How the values were obtained:
# Rattus norvegicus [1] = organism: Rattus norvegicus; experiment: In vitro inhibitory effect on production of, Prostaglandin E2 (PGE2) in rat synovial cells; format: functional
# THP-1 [2] = experiment: In vitro inhibitory effect on production of, lipopolysaccharide (LPS) -induced IL1-beta in human THP-1 cells; format: functional, cell-based
# Rattus norvegicus [3] = organism: Rattus norvegicus; experiment: In vitro inhibitory effect on production of, calcium ionophore (A23187) -induced Leukotriene B4 (LTB4) in rat peritoneal cells; format: functional, cell-based
# Cyclooxygenase = biological target: T1, Cyclooxygenase (Rattus norvegicus, UniProt P35355+Q63921)
# T1 sequence (P35355 whole entry): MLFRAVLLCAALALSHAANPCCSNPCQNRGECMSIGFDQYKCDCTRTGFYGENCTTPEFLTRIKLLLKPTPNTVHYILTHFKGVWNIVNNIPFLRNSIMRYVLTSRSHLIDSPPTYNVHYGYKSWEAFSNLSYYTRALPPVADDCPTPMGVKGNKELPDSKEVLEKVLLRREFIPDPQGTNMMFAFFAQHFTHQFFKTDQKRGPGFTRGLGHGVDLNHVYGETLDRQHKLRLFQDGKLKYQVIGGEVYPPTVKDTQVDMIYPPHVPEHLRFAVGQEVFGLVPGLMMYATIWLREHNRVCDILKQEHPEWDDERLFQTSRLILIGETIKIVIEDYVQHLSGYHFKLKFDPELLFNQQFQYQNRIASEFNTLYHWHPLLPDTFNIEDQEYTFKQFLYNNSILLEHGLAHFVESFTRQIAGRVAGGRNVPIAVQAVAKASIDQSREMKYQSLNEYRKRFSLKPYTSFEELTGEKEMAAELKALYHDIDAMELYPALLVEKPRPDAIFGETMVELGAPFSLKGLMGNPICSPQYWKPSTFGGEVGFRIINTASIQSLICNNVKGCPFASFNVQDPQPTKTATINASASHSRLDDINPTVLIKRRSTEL
# T1 sequence (Q63921 whole entry): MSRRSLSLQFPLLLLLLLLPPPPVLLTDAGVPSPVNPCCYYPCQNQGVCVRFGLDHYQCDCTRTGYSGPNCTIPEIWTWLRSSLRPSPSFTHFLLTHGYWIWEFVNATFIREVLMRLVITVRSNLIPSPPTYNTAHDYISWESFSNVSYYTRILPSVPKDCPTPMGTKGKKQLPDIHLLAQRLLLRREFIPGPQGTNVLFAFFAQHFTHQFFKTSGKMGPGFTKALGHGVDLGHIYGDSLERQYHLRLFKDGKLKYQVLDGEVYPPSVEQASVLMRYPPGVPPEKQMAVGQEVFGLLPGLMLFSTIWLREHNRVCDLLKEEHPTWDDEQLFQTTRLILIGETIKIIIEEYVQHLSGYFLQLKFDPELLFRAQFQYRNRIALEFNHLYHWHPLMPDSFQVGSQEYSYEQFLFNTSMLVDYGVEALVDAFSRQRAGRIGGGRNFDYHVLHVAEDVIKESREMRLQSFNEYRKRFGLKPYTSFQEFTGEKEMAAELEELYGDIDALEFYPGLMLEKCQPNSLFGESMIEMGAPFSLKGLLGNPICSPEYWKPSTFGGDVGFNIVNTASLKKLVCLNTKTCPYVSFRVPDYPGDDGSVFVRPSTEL
# Description: In vitro inhibitory effect on production of prostaglandin E2 (PGE2) in rat synovial cells.
# Rattus norvegicus [4] = organism: Rattus norvegicus; experiment: In vitro effect on production of calcium ionophore (A23187) -induced Leukotriene B4 (LTB4) in rat peritoneal cells; format: functional, cell-based
# THP-1 [5] = experiment: In vitro effect on production of lipopolysaccharide (LPS) -induced IL1-beta in human THP-1 cells; format: functional, cell-based
# Rattus norvegicus [6] = experiment: Percent inhibition of carrageenan-induced foot-pad edema at 30 mg/kg po; format: functional
# Rattus norvegicus [7] = experiment: Dose required for 30% inhibition of carrageenan-induced edema; format: functional
# Rattus norvegicus [8] = organism: Rattus norvegicus; experiment: Dose required for 30% inhibition of adjuvant-induced arthritis; format: functional
# Rattus norvegicus [9] = experiment: Percent inhibition of adjuvant-induced arthritis at 10 mg/kg po; format: functional
# THP-1 [10] = experiment: In vitro inhibitory effect on production of lipopolysaccharide (LPS)-induced IL1-beta in human THP-1 cells; format: functional, cell-based
# Rattus norvegicus [11] = organism: Rattus norvegicus; experiment: In vitro inhibitory effect on production of calcium ionophore (A23187)-induced Leukotriene B4 (LTB4) in rat peritoneal cells; format: functional, cell-based
# Rattus norvegicus [12] = organism: Rattus norvegicus; experiment: In vitro inhibitory effect on production of Prostaglandin E2 (PGE2) in rat synovial cells; format: functional
# Rattus norvegicus [13] = organism: Rattus norvegicus
# Description: Lengths of bleeding ulcer of drug-administered group
# Rattus norvegicus [14] = organism: Rattus norvegicus; experiment: Dose required for Ulcerogenic effect; format: functional
# [15] = Inhibitory effect on production of (COX-2) prostaglandin E2 (PGE2) in human IL1-beta stimulated synovial cells; format: functional
# Rattus norvegicus [16] = organism: Rattus norvegicus; experiment: Inhibitory effect for increase in plasma prostaglandin E2 (PGE2) level after arachidonic acid (AA) injection into COX-2 lipopolysaccharide-treated rats; format: functional
# Rattus norvegicus [17] = organism: Rattus norvegicus; experiment: Inhibitory effect for increase in plasma prostaglandin E2 (PGE2) level after arachidonic acid (AA) injection into, COX-1 non-lipopolysaccharide-treated rats; format: functional
# Homo sapiens = organism: Homo sapiens; experiment: Inhibitory effect on production of (COX-1) thromboxane B2 (TXB2) in human platelet cells; format: functional, cell-based
# Rattus norvegicus [18] = organism: Rattus norvegicus; experiment: Inhibitory effect for increase in plasma prostaglandin E2 (PGE2) level after arachidonic acid (AA) injection into COX-1 non-lipopolysaccharide-treated rats; format: functional
SMILES,IC50 (Cyclooxygenase) [µM],IC50 (Rattus norvegicus [4]) [µM],IC50 (THP-1 [5]) [µM],inhibition in vivo at 30 mg/kg (Rattus norvegicus [6]) [%],also measured
CCN1CC/C(=C\c2ccc(O)c(OC)c2)S1(=O)=O,–,–,–,–,IC50 (Rattus norvegicus [1]): > 1 µM; IC50 (THP-1 [2]): > 100 µM; IC50 (Rattus norvegicus [3]): > 100 µM
CCN1CC/C(=C\c2ccc(O)cc2)S1(=O)=O,–,–,–,–,IC50 (Rattus norvegicus [1]): > 1 µM; IC50 (THP-1 [2]): > 100 µM; IC50 (Rattus norvegicus [3]): > 100 µM
CC(C)N1CC/C(=C\c2cc(C(C)(C)C)c(O)c(C(C)(C)C)c2)S1(=O)=O,0.32,–,–,–,–
CC(C)(C)c1cc(/C=C2/CCNS2(=O)=O)cc(C(C)(C)C)c1O,< 0.001,1.8,27,10.8,–
CC(C)(C)c1cc(/C=C2\CCN(c3ccccn3)S2(=O)=O)cc(C(C)(C)C)c1O,1,–,–,–,–
CN1OCC/C(=C\c2cc(C(C)(C)C)c(O)c(C(C)(C)C)c2)S1(=O)=O,0.2,–,–,–,–
CCN1CC/C(=C\c2cc(OC)c(O)c(OC)c2)S1(=O)=O,–,–,–,–,IC50 (Rattus norvegicus [1]): > 1 µM; IC50 (THP-1 [2]): > 100 µM; IC50 (Rattus norvegicus [3]): 2.6 µM
CON1CC/C(=C\c2cc(C(C)(C)C)c(O)c(C(C)(C)C)c2)S1(=O)=O,< 0.001,3,> 100,26.5,ED30 (Rattus norvegicus [7]): 34.7 mg/kg; ED30 (Rattus norvegicus [8]): 2.4 mg/kg; inhibition in vivo at 10 mg/kg (Rattus norvegicus [9]): 35.2%
CC(C)(C)c1cc(/C=C2\CCN(CC(=O)O)S2(=O)=O)cc(C(C)(C)C)c1O,3.4,–,–,–,–
CC(C)(C)c1cc(/C=C2/CCN(c3ccc(Cl)cc3)S2(=O)=O)cc(C(C)(C)C)c1O,< 0.001,–,–,–,–
CCN1CC/C(=C/c2cc(C(C)(C)C)c(O)c(C(C)(C)C)c2)S1(=O)=O,0.0021,2.5,10,7.3,inhibition in vivo at 10 mg/kg (Rattus norvegicus [9]): 11.4%
CCN1CC/C(=C\c2cc(C(C)C)c(O)c(C(C)C)c2)S1(=O)=O,–,–,–,–,IC50 (THP-1 [10]): > 100 µM; IC50 (Rattus norvegicus [11]): > 100 µM; IC50 (Rattus norvegicus [12]): > 1 µM
CC(C)(C)c1cc(/C=C2\CCN(C3CC3)S2(=O)=O)cc(C(C)(C)C)c1O,0.0025,3.2,9,21.4,ED30 (Rattus norvegicus [7]): 11.9 mg/kg; Ulcer index (Rattus norvegicus [13]): 0.7 mm; ED30 (Rattus norvegicus [8]): 1.7 mg/kg; inhibition in vivo at 10 mg/kg (Rattus norvegicus [9]): 32.9%; Dose (Rattus norvegicus [14]): 400 mg/kg
CC(C)(C)c1cc(/C=C2\CCN(O)S2(=O)=O)cc(C(C)(C)C)c1O,0.01,9.5,90,15.8,inhibition in vivo at 10 mg/kg (Rattus norvegicus [9]): 3.6%
CON(C)C(=O)N1CC/C(=C\c2cc(C(C)(C)C)c(O)c(C(C)(C)C)c2)S1(=O)=O,0.1,28,> 100,11.2,–
CC(C)CN1CC/C(=C\c2cc(C(C)(C)C)c(O)c(C(C)(C)C)c2)S1(=O)=O,0.41,–,–,–,–
CCN1CC/C(=C\c2cc(C)c(O)c(C)c2)S1(=O)=O,–,–,–,–,IC50 (Rattus norvegicus [1]): > 1 µM; IC50 (THP-1 [2]): > 100 µM; IC50 (Rattus norvegicus [3]): 21 µM

SMILES,IC50 (Cyclooxygenase) [µM],IC50 (Rattus norvegicus [4]) [µM],IC50 (THP-1 [5]) [µM],inhibition in vivo at 30 mg/kg (Rattus norvegicus [6]) [%],also measured
CC(C)(C)c1cc(/C=C2\CCN(c3ccc(Cl)cc3)S2(=O)=O)cc(C(C)(C)C)c1O,< 0.001,21,> 100,6.3,–
CC(C)(C)c1cc(/C=C2\CCN(CCO)S2(=O)=O)cc(C(C)(C)C)c1O,0.24,–,–,–,–
CC(C)(C)c1cc(/C=C2\CCN(c3ccncc3)S2(=O)=O)cc(C(C)(C)C)c1O,0.41,–,–,–,–
CC(C)(C)c1cc(/C=C2/CCN(O)S2(=O)=O)cc(C(C)(C)C)c1O,0.7,–,–,–,–
CCCN1CC/C(=C\c2cc(C(C)(C)C)c(O)c(C(C)(C)C)c2)S1(=O)=O,0.013,1.9,19,0.3,inhibition in vivo at 10 mg/kg (Rattus norvegicus [9]): 11.4%
CCCN1CC/C(=C/c2cc(C(C)(C)C)c(O)c(C(C)(C)C)c2)S1(=O)=O,0.012,0.8,23,11.2,–
CN(C)CCN1CC/C(=C\c2cc(C(C)(C)C)c(O)c(C(C)(C)C)c2)S1(=O)=O,0.34,–,–,–,–
CON1CC/C(=C/c2cc(C(C)(C)C)c(O)c(C(C)(C)C)c2)S1(=O)=O,0.0025,1.5,20,6,inhibition in vivo at 10 mg/kg (Rattus norvegicus [9]): 5%
CC(C)(C)c1cc(/C=C2\CCNS2(=O)=O)cc(C(C)(C)C)c1O,0.03,> 100,> 100,17.2,inhibition in vivo at 10 mg/kg (Rattus norvegicus [9]): 8.8%
CC(C)(C)c1cc(/C=C2\CCN(c3cccnc3)S2(=O)=O)cc(C(C)(C)C)c1O,0.32,–,–,–,–
CC(C)(C)c1cc(/C=C2\CCCNS2(=O)=O)cc(C(C)(C)C)c1O,0.0062,74,56,14.7,–
CC(=O)N1CC/C(=C\c2cc(C(C)(C)C)c(O)c(C(C)(C)C)c2)S1(=O)=O,< 0.001,4.9,28,21,–
CN1CC/C(=C/c2cc(C(C)(C)C)c(O)c(C(C)(C)C)c2)S1(=O)=O,< 0.001,1.8,29,25.2,–
CC(C)(C)c1cc(/C=C2\CCN(C(=O)NO)S2(=O)=O)cc(C(C)(C)C)c1O,0.024,6,20,14.9,–
CS(=O)(=O)Nc1ccc([N+](=O)[O-])cc1OC1CCCCC1 [NS-398],–,–,–,–,IC50 [15]: 0.0019 µM; ED50 (Rattus norvegicus [16]): 1 mg/kg; ED50 (Rattus norvegicus [17]): > 30 mg/kg; IC50 (Homo sapiens): 6.8 µM
NC(=O)N1C(=O)/C(=C(\O)c2cccs2)c2cc(Cl)ccc21 [TENIDAP],0.053,45,16,–,ED30 (Rattus norvegicus [7]): 4 mg/kg; Ulcer index (Rattus norvegicus [13]): 12.9 mm; ED50 (Rattus norvegicus [16]): 0.05 mg/kg; ED30 (Rattus norvegicus [8]): 1 mg/kg; Dose (Rattus norvegicus [14]): 30 mg/kg; ED50 (Rattus norvegicus [18]): 0.025 mg/kg
